Reference: patent publication US10927170B2, “Anti-claudin 1 monoclonal antibodies for the prevention and treatment of hepatocellular carcinoma” (INSTITUT HOSPITALIER UNIVERSITAIRE DE STRASBOURG, priority 2015, dated 2021)

Tests used:
[1] = test system: HCV Jc1-infected Huh7.5.1^dif cells; test: 186-gene HCC risk signature (nCounter, GSEA, nearest template prediction) in persistently HCV Jc1-infected Huh7.5.1^dif cells; type: cell-based, human; conditions: for Reversal of HCC high-risk genes as shown by GSEA (FIG. 2A): DAA 1 nM DCV+1 μM SOF, interferon alpha-2a 10 IU/ml, erlotinib 0.1 μM, pioglitazone 1 μM, metformin 3 μM, mAb 1, 10 and 100 μg/ml
Method: Huh7.5.1 cells have already been described (Zhong et al., Proc Natl Acad Sci USA, 2005, 102(26): 9294-9299). For proliferation arrest and differentiation (Huh7.5.1^dif cells), 2.5.10^4 to 3.10^4 Huh7.5.1 cells were cultured in Dulbecco's Modified Eagle Medium (DMEM) containing 1% dimethylsulfoxide (DMSO).
Cell culture-derived HCVcc Jc1 (genotype 2a/2a) (Pietschmann et al., Proc Natl Acad Sci USA, 2006, 103(19): 7408-7413) were generated in Huh7.5.1 cells as previously described (Wakita et al., Nat Med., 2005, 11(7): 791-796). HCVcc infectivity was determined by calculating the 50% tissue culture infectious doses (TCID50) in infection experiments as previously described (Lindenbach et al., Science, 2005, 309(5734): 623-626). HCV infection was assessed by qRT-PCR of intracellular HCV RNA (Xiao et al., Gut, 2015, 64(3): 483-494) as well as by immunostaining using an HCV E2-specific AP33 antibody as previously described (Krieger et al., Hepatology. 2010, 51(4): 1144-1157).
Liver cells were lysed in TRI-reagent (Molecular Research Center), and RNA was purified using Direct-zol RNA MiniPrep (Zymo Research) according to the manufacturer's instructions. RNA quantity and quality were assessed using NanoDrop (ThermoScientific) and Bioanalyzer 2100 ([…]). Gene expression profiling was performed using 250-500 ng total RNA by using nCounter Digital Analyzer system (NanoString).
Cells incubated with 1% DMSO served as negative control. Three (3) days after treatment, the cells were lysed, total RNA was purified as described above, and analyzed for gene expression and intracellular viral load as described above.
Prediction of clinical outcome based on the 186-gene signature was performed as previously reported by using the nearest template prediction algorithm, which was implemented in GenePattern (King et al., Gut, 2014, 20. pii: gutjn1-2014-307862. doi: 10.1136/gutjn1-2014-307862; Hoshida et al., PLoS ONE, 2010, 5(11), e15543). A prediction of HCC high-risk or low-risk gene signature was determined using p<0.05 and FDR<0.25. Induction/suppression of each gene set over time according to HCV Jc1 infection and uninfected control was assessed through GSEA and single sample GSEA (ssGSEA) modules implemented in GenePattern as previously described (Subramanian et al., Proc Natl Acad Sci USA, 2005, 102(43): 15545-15550; Barbie et al., Nature, 2009, 462(7269): 108-112). […] Using differentially expressed genes, network analysis was performed using canonical pathways from Ingenuity Knowledge Base repository (Ingenuity Systems Inc.).

[2] = test system: rodent models of cirrhosis-driven HCC; conditions: Fuchs et al., Hepatology, 2014; cited from earlier work
[3] = 186-gene signature, treatment from day 7 post-infection, nCounter assay

| Compound | NES, HCC high-risk genes (GSEA) [1, 3] | NES, HCC low-risk genes (GSEA) [1, 3] | Reversal of HCC high-risk genes as shown by GSEA (FIG. 2A) [1] | 186-gene HCC risk signature [2] | Liver fibrosis and HCC nodules [2] |
| --- | --- | --- | --- | --- | --- |
| C#Cc1cccc(Nc2ncnc3cc(OCCOC)c(OCCOC)cc23)c1 [erlotinib] | −1.28 | 1.26 | partially reverses | reversed | reduced liver fibrosis and HCC nodules |
| CN(C)C(=N)N=C(N)N [metformin] | – | – | had no effect | – | – |
